According to patent US8492422B2, “Ester pro-drugs of [3-(1-(1H-imidazol-4-yl)ethyl)-2-methylphenyl] methanol for treating skin diseases and conditions” (Allergan, Inc., priority 2010, dated 2013):

Test: In Vitro Human Skin Permeability Assay (static Franz diffusion cells)
Details: in vitro Franz diffusion cell; 0.65% (Compound 2) and 0.55% (Compound 1) (w/w) dose; 48 hour dose exposure; 5 mg formulation/cm^2
Protocol: To assure the integrity of each skin section, its permeability to tritiated water was determined before application of the test products.

## Cc1c(COC(=O)C(C)C)cccc1[C@H](C)c1c[nH]cn1 [Compound 1, iso-Butyric acid 3-[(S)-1-(1H-imidazol-4-yl)-ethyl]-2-methyl-benzyl ester]
  penetration into and through ex vivo human trunk skin (percutaneous absorption): penetrate into and through ex vivo human trunk skin
